Reference: article PMC6218659, “Structures of DPAGT1 Explain Glycosylation Disease Mechanisms and Advance TB Antibiotic Design” (Cell, 2018)
In brackets after ≈: the same amount, converted by molar mass. Where two headings read alike, the source gives them in different places.

Experiments:
B. subtilis EC1524 = assay: Micro-broth dilution and drop plate antimicrobial susceptibility test; assay type: cell-based, Bacillus subtilis; details: for IC50 / MBC / MIC: Bacillus subtilis; for Relative Therapeutic Index (RTI), B. subtilis EC1524: minimal lethal dose / MIC, 800 μg mL-1 used for >400
Experimental: (§1) In a sterile 96-well plate, serial dilutions were made with the test substance to final volume of 50 μl. Inoculum was then prepared in Mueller-Hinton broth to 0.5 McFarland and diluted before adding 50 μl to the well to make ∼1x10^5 CFU/ml. The culture plate was incubated at 35 °C for 20-24 hrs. A positive growth control and sterility wells were also prepared along with the culture wells. Absorbance at OD600 was taken using BMG Labtech SPECTROstar Omega spectrophotometer. MIC is determined by the lowest concentration without growth. IC50 is determined from plotting a dose-response curve, see Data Analysis below. To determine the MBC, using a multi-channel pipette, 1 μl of culture broth was taken from the same 96-well microdilution growth plate and carefully inoculated on surface of MH agar plate. The plate is then incubated for additional 20 hrs. at 35 °C. The MBC value is the lowest concentration without observed growth on the agar.

S. aureus ATCC29219 = assay: as above; assay type: cell-based; details: Staphylococcus aureus
Experimental: as §1

P. aeruginosa ATCC27853 = assay: as above; assay type: cell-based; details: Pseudomonas aeruginosa
Experimental: as §1

E. coli ATCC25922 = assay: as above; assay type: cell-based; details: Escherichia coli
Experimental: as §1

B. cereus ATCC11778 = assay: as above; assay type: cell-based, Bacillus cereus; details: for IC50 / MBC / MIC: Bacillus cereus; for Relative Therapeutic Index (RTI), B. cereus NRRL 11778: minimal lethal dose / MIC, 800 μg mL-1 used for >400
Experimental: as §1

Mtb H37Rv ATCC27294 = assay: Minimum inhibitory concentrations testing against Mtb; assay type: cell-based, Mycobacterium tuberculosis; details: for MIC: Mycobacterium tuberculosis, 168 h; for Relative Therapeutic Index (RTI), Mtb H37RV a / Relative Therapeutic Index (RTI), Mtb H37RV b: minimal lethal dose / MIC, 800 μg mL-1 used for >400; for Relative Therapeutic Index (RTI), Mtb H37RV a: 7H9/ADC/Tw; for Relative Therapeutic Index (RTI), Mtb H37RV b: GAST/Fe
Raji cells = assay: Cell proliferation assay (MTS); assay type: cell-based, human; details: 24 hrs
Experimental: (§2) In sterile 96-well plate, each well was seeded with ∼1x10^5 cells. The cells are then grown confluent overnight in 100 μl DMEM with 10% FBS. The medium is replenished with DMEM with 2% FBS and added vehicle control or test substance the next day. For test substance in methanol, stock was added to 25 μl of DMEM with 2% FBS or PBS and placed in the laminar flow hood to let the methanol evaporate (about 1-3 hrs). Once the methanol has evaporated, DMEM with 2% FBS was added to final volume of 100 μl of desired test concentration. […] Cells are grown for additional 24 hrs. The cell viability was determined by using Promega CellTiter 96^© AQueous One Solution Cell Proliferation Assay (3-(4,5-dimethylthiazol-2-yl)-5-(3-carboxymethoxyphenyl)-2-(4-sulfophenyl)-2H-tetrazolium, inner salt; MTS) System following the manufacture protocol.

HEK293 cells = assay: Cell proliferation assay (MTS); assay type: cell-based, human; details: for LD50 values, HEK293: MTS cell proliferation assay, 24 hrs, highest concentration 400 µg mL-1; for Minimal Lethal Dose, HEK 293: serial 2-fold dilutions (Table S6)
Experimental: as §2

HepG2 cells = assay: Cell proliferation assay (MTS); assay type: cell-based, human; details: for LD50 values, HepG2: MTS cell proliferation assay, 24 hrs, highest concentration 400 µg mL-1; for Minimal Lethal Dose, HepG2: serial 2-fold dilutions (Table S6)
Experimental: as §2

[1] = system: Mtb-infected J774A.1 macrophages; assay: Efficacy against Mtb growing in infected macrophages; details: J774A.1 macrophages treated 3 or 7 days
[2] = EC1524, read-out: Minimal Inhibitory Concentration, B. subtilis EC1524
[3] = ATCC 11778 / NRRL11778, read-out: Minimal Inhibitory Concentration, B. cereus NRRL 11778
[4] = read-out: 1-week MIC in 7H9/ADC/Tw
[5] = read-out: 1-week MIC in GAST/Fe
[6] = read-out: Minimal Inhibitory Concentration, Mtb H37RV a
[7] = read-out: Minimal Inhibitory Concentration, Mtb H37RV b

Row | SMILES | IC50 (B. subtilis EC1524; EC1524) [µg/mL] | MBC (B. subtilis EC1524; EC1524) [µg/mL] | MIC (B. subtilis EC1524; EC1524) [µg/mL] | MIC (B. subtilis EC1524; [2]) [µg/mL] | Relative Therapeutic Index (RTI), B. subtilis EC1524 (B. subtilis EC1524) | IC50 (S. aureus ATCC29219) [µg/mL] | MBC (S. aureus ATCC29219) [µg/mL] | MIC (S. aureus ATCC29219) [µg/mL] | IC50 (P. aeruginosa ATCC27853) [µg/mL] | MBC (P. aeruginosa ATCC27853) [µg/mL] | MIC (P. aeruginosa ATCC27853) [µg/mL] | IC50 (E. coli ATCC25922) [µg/mL] | MBC (E. coli ATCC25922) [µg/mL] | MIC (E. coli ATCC25922) [µg/mL] | IC50 (B. cereus ATCC11778; ATCC11778) [µg/mL] | MBC (B. cereus ATCC11778; ATCC11778) [µg/mL] | MIC (B. cereus ATCC11778; ATCC11778) [µg/mL] | MIC (B. cereus ATCC11778; [3]) [µg/mL] | Relative Therapeutic Index (RTI), B. cereus NRRL 11778 (B. cereus ATCC11778) | MIC (Mtb H37Rv ATCC27294; [4]) [µg/mL] | further results
1 | CCCCCCCCCCC(=O)N[C@H]1[C@H](O[C@H]2O[C@H](CO)[C@@H](O)[C@H](O)[C@H]2NC(=O)CCCCCCCCCC)O[C@H](C[C@@H](O)[C@H]2O[C@@H](n3ccc(=O)[nH]c3=O)[C@H](O)[C@@H]2O)[C@H](O)[C@@H]1O [TUN-11,11, Di-N-undecanoyl-tunicamycin] | 0.85 ± 0.28 (≈ 0.941 µM) | > 1.56 | 1.3 ± 0.45 (≈ 1.44 µM) | 1.56 (≈ 1.73 µM) | 513 | 58 (≈ 64.3 µM) | 400 (≈ 443 µM) | 170 ± 60 (≈ 188 µM) | 63.2 (≈ 69.9 µM) | 400 (≈ 443 µM) | 83 ± 29 (≈ 91.9 µM) | 131 (≈ 145 µM) | 400 (≈ 443 µM) | 330 ± 120 (≈ 365 µM) | 0.088 (≈ 0.0974 µM) | > 25 | 0.65 ± 0.23 (≈ 0.72 µM) | 0.78 (≈ 0.864 µM) | 1026 | 4.1 ± 2.2 (≈ 4.54 µM) | MIC (Mtb H37Rv ATCC27294; [5]): 1.6 ± 1.6 µg/mL (≈ 1.77 µM); MIC (Mtb H37Rv ATCC27294; [6]): 4.1 µg/mL (≈ 4.54 µM); MIC (Mtb H37Rv ATCC27294; [7]): 1.6 µg/mL (≈ 1.77 µM); Relative Therapeutic Index (RTI), Mtb H37RV a (Mtb H37Rv ATCC27294): 195; Relative Therapeutic Index (RTI), Mtb H37RV b (Mtb H37Rv ATCC27294): 500; LD50 values, Raji (Raji cells): 103.65 ± 34.34 µg/mL; LD50 values, HEK293 (HEK293 cells): N/A (N/A = not available. No or low cytotoxicity observed at highest, saturating concentration tested (400 µg mL-1)); Minimal Lethal Dose, HEK 293 (HEK293 cells): > 400 µg/mL; LD50 values, HepG2 (HepG2 cells): N/A (N/A = not available. No or low cytotoxicity observed at highest, saturating concentration tested (400 µg mL-1)); Minimal Lethal Dose, HepG2 (HepG2 cells): > 400 µg/mL; reduction of intracellular bacterial burdens ([1]; 1 × MIC): 1 logs; reduction of intracellular bacterial burdens ([1]; 10 × MIC): 2 logs
2 | CC(C)=CCC[C@H](C)CC(=O)N[C@H]1[C@H](O[C@H]2O[C@H](CO)[C@@H](O)[C@H](O)[C@H]2NC(=O)C[C@@H](C)CCC=C(C)C)O[C@H](C[C@@H](O)[C@H]2O[C@@H](n3ccc(=O)[nH]c3=O)[C@H](O)[C@@H]2O)[C@H](O)[C@@H]1O [TUN-Cit,Cit, Di-N-citronoyl-tunicamycin] | 0.36 ± 0.12 (≈ 0.413 µM) | > 200 | 5.2 ± 1.8 (≈ 5.97 µM) | 6.25 (≈ 7.18 µM) | 128 | 177 (≈ 203 µM) | > 200 | > 400 | 70.3 (≈ 80.7 µM) | > 400 | 170 ± 60 (≈ 195 µM) | 218 (≈ 250 µM) | 400 (≈ 459 µM) | > 400 | 6.29 ± 2.1 (≈ 7.22 µM) | > 200 | 83 ± 29 (≈ 95.3 µM) | 100 (≈ 115 µM) | 8 | 16.3 ± 8.8 (≈ 18.7 µM) | MIC (Mtb H37Rv ATCC27294; [5]): 3.4 ± 3.1 µg/mL (≈ 3.9 µM); MIC (Mtb H37Rv ATCC27294; [6]): 16.3 µg/mL (≈ 18.7 µM); MIC (Mtb H37Rv ATCC27294; [7]): 3.4 µg/mL (≈ 3.9 µM); Relative Therapeutic Index (RTI), Mtb H37RV a (Mtb H37Rv ATCC27294): 49; Relative Therapeutic Index (RTI), Mtb H37RV b (Mtb H37Rv ATCC27294): 235; LD50 values, Raji (Raji cells): 177.75 ± 75.17 µg/mL; LD50 values, HEK293 (HEK293 cells): N/A (N/A = not available. No or low cytotoxicity observed at highest, saturating concentration tested (400 µg mL-1)); Minimal Lethal Dose, HEK 293 (HEK293 cells): > 400 µg/mL; LD50 values, HepG2 (HepG2 cells): N/A (N/A = not available. No or low cytotoxicity observed at highest, saturating concentration tested (400 µg mL-1)); Minimal Lethal Dose, HepG2 (HepG2 cells): > 400 µg/mL
